According to PMC12336824 (The Journal of Biological Chemistry, 2025):
≈ marks a conversion by molar mass, not a printed value.

System: V. cholerae Δnqr mutant
Test: microbe, parasite or virus in culture
Type: cell-based

CC(C)/N=c1\cc2n(-c3ccc(Cl)cc3)c3ccccc3nc-2cc1Nc1ccc(Cl)cc1 [clofazimine]
resistance of the growth to saturating concentrations of inhibitor: about 40%
MIC50 (Vibrio cholerae, 8 h): 23 ± 6 µM (≈ 10.9 µg/mL)
